Measurements reported in PubChem BioAssay AID184 (DTP/NCI, 2004).
Values joined by “and” are separate entries in the source; they are usually repeats but may differ in a detail not shown here. Identical values can stand only once. Toxic doses and inconclusive results are not listed. Starred links: 1 amine or outer side, 2 acyl side, 3 side chain; linkers in the order of their positions; H or OH if unused. Positions of bridges follow the written chain, without caps; N, C: chain ends. Non-standard residues stand in square brackets, D forms with d. Residues, ends and D or L forms follow the SMILES beside them. Chains are numbered I, II in the order given. Actinocin(9to1) = Cc1c2oc3c(C)ccc(C(=O)[*:1])c3nc-2c(C(=O)[*:2])c(N)c1=O; aThr = C[C@H](O)[C@H](N)C(=O)O; NMeV = CN[C@H](C(=O)O)C(C)C; Sar = CNCC(=O)O

Tested on: BALB/cJ mice, ADJ-PC-6 ip tumor, median survival T/C
Assay: NCI In Vivo Anticancer Drug Screen. Data for tumor model ADJ-PC-6 (intraperitoneal) in BALB/cJ mice
Settings: endpoint: median survival time, higher = longer survival
Experimental: The antitumor activity of compounds was measured in mice bearing transplantable tumors. Survival or tumor size were measured and the results are expressed as the measurement made in the treated group (T) divided by the measurement made in the vehicle treated control group (C). The tumor model used in this assay is ADJ-PC-6 (intraperitoneal) in BALB/cJ mice

[1] = dose: 10.0 mg/kg/injection, schedule: Q04DX003 (ip), vehicle: saline
[2] = dose: 20.0 mg/kg/injection, schedule: Q04DX003 (ip), vehicle: saline
[3] = dose: 40.0 mg/kg/injection, schedule: Q04DX003 (ip), vehicle: saline
[4] = dose: 80.0 mg/kg/injection, schedule: Q04DX003 (ip), vehicle: saline

In the case of `O=C(O)CCCc1ccc(N(CCCl)CCCl)cc1`, the T/C (dose: 1.25 mg/kg/injection, schedule: Q04DX003 (ip), vehicle: saline with Tween-80) was 106 % of control, the T/C (dose: 2.0 mg/kg/injection, schedule: Q04DX003 (ip), vehicle: saline with Tween-80) was 102 % of control and the T/C (dose: 2.5 mg/kg/injection, schedule: Q04DX003 (ip), vehicle: saline with Tween-80) was 105 % of control. The T/C (dose: 4.0 mg/kg/injection, schedule: Q04DX003 (ip), vehicle: saline with Tween-80) was 102 % of control, the T/C (dose: 5.0 mg/kg/injection, schedule: Q04DX003 (ip), vehicle: saline with Tween-80) was 105 % of control and the T/C (dose: 8.0 mg/kg/injection, schedule: Q04DX003 (ip), vehicle: saline with Tween-80) was 122 % of control. For the same molecule, the T/C (dose: 16.0 mg/kg/injection, schedule: Q04DX003 (ip), vehicle: saline with Tween-80) was 173 % of control, the T/C (dose: 20.0 mg/kg/injection, schedule: Q04DX003 (ip), vehicle: saline with Tween-80) was 260 % of control and the T/C (dose: 32.0 mg/kg/injection, schedule: Q04DX003 (ip), vehicle: saline with Tween-80) was 189 % of control.

For `Cc1c2oc3c(C)ccc(C(=O)N[C@@H]4C(=O)N[C@H](C(C)C)C(=O)N5CCC[C@H]5C(=O)N(C)CC(=O)N(C)[C@@H](C(C)C)C(=O)O[C@H]4C)c3nc-2c(C(=O)N[C@@H]2C(=O)N[C@H](C(C)C)C(=O)N3CCC[C@H]3C(=O)N(C)CC(=O)N(C)[C@@H](C(C)C)C(=O)O[C@H]2C)c(N)c1=O` (I: [aThr][dV]P[Sar][NMeV] / II: [aThr][dV]P[Sar][NMeV]; ester I:1-I:C, II:1-II:C; linker I:N-II:N via Actinocin(9to1)), the T/C (dose: 0.04 mg/kg/injection, schedule: Q04DX003 (ip), vehicle: saline + alcohol) was 115 % of control, the T/C (dose: 0.08 mg/kg/injection, schedule: Q04DX003 (ip), vehicle: saline + alcohol) was 115 % of control and the T/C (dose: 0.3 mg/kg/injection, schedule: Q04DX003 (ip), vehicle: saline + alcohol) was 156 % of control. For the same molecule, the T/C (dose: 0.6 mg/kg/injection, schedule: Q04DX003 (ip), vehicle: saline + alcohol) was 189 % of control and 197 % of control, the T/C (dose: 37.5 micrograms/kg/injection, schedule: Q04DX003 (ip), vehicle: saline + alcohol) was 94 % of control and the T/C (dose: 75.0 micrograms/kg/injection, schedule: Q04DX003 (ip), vehicle: saline + alcohol) was 103 % of control. For the same molecule, the T/C (dose: 150.0 micrograms/kg/injection, schedule: Q04DX003 (ip), vehicle: saline + alcohol) was 97 % of control and the T/C (dose: 300.0 micrograms/kg/injection, schedule: Q04DX003 (ip), vehicle: saline + alcohol) was 90 % of control.

For `O=P1(N(CCCl)CCCl)NCCCO1` (stereo not drawn), the T/C [1] was 99 % of control, the T/C (dose: 10.0 mg/kg/injection, schedule: Q04DX003 (iv), vehicle: saline) was 88 % of control and the T/C (dose: 19.4 mg/kg/injection, schedule: Q04DX003 (ip), vehicle: saline) was 108 % of control. For the same molecule, the T/C [2] was 109 % of control and 110 % of control, the T/C (dose: 20.0 mg/kg/injection, schedule: Q04DX003 (iv), vehicle: saline) was 95 % of control and the T/C (dose: 32.4 mg/kg/injection, schedule: Q04DX003 (ip), vehicle: saline) was 166 % of control. The T/C [3] was 173 % of control and 178 % of control, the T/C (dose: 54.0 mg/kg/injection, schedule: Q04DX003 (ip), vehicle: saline) was 189 % of control and the T/C [4] was 168 % of control and 335 % of control. The T/C (dose: 80.0 mg/kg/injection, schedule: Q04DX003 (iv), vehicle: saline) was 194 % of control, the T/C (dose: 90.0 mg/kg/injection, schedule: Q04DX003 (ip), vehicle: saline) was 267 % of control and the T/C (dose: 150.0 mg/kg/injection, schedule: Q04DX003 (ip), vehicle: saline) was 340 % of control. The T/C (dose: 160.0 mg/kg/injection, schedule: Q04DX003 (ip), vehicle: saline) was 194 % of control and 335 % of control and the T/C (dose: 160.0 mg/kg/injection, schedule: Q04DX003 (iv), vehicle: saline) was 194 % of control.

For `O=C(O)c1ccc(C(=O)O)o1.[NH-]C1CCCCC1[NH-].[Pt+2]`, the T/C (dose: 2.59 mg/kg/injection, schedule: Q04DX003 (ip), vehicle: water) was 265 % of control, the T/C (dose: 4.3 mg/kg/injection, schedule: Q04DX003 (ip), vehicle: water) was 254 % of control and the T/C (dose: 7.2 mg/kg/injection, schedule: Q04DX003 (ip), vehicle: water) was 367 % of control. The T/C (dose: 12.0 mg/kg/injection, schedule: Q04DX003 (ip), vehicle: water) was 234 % of control and the T/C (dose: 20.0 mg/kg/injection, schedule: Q04DX003 (ip), vehicle: water) was 451 % of control.

For `CO[C@H]1C[C@](C)(O)Cc2cc3c(c(O)c21)C(=O)c1c(O)cc2c(c1C3=O)O[C@@H]1O[C@@]2(C)[C@H](O)[C@@H](N(C)C)[C@@H]1O`, the T/C (dose: 7.5 mg/kg/injection, schedule: Q04DX003 (ip), vehicle: saline) was 188 % of control, the T/C (dose: 12.5 mg/kg/injection, schedule: Q04DX003 (ip), vehicle: saline) was 189 % of control and the T/C (dose: 15.0 mg/kg/injection, schedule: Q04DX003 (ip), vehicle: saline) was 319 % of control. The T/C (dose: 25.0 mg/kg/injection, schedule: Q04DX003 (ip), vehicle: saline) was 252 % of control, the T/C (dose: 30.0 mg/kg/injection, schedule: Q04DX003 (ip), vehicle: saline) was 267 % of control and the T/C (dose: 60.0 mg/kg/injection, schedule: Q04DX003 (ip), vehicle: saline) was 471 % of control.

With `O=C1NC(=O)C2C3C=CC(C12)C1C2C(=O)NC(=O)C2C31` (stereo not drawn) the T/C (dose: 5.0 mg/kg/injection, schedule: Q01DX009 (ip), vehicle: saline with Tween-80) was 110 % of control, the T/C (dose: 10.0 mg/kg/injection, schedule: Q01DX009 (ip), vehicle: saline with Tween-80) was 88 % of control and 103 % of control and the T/C (dose: 80.0 mg/kg/injection, schedule: Q01DX009 (ip), vehicle: saline with Tween-80) was 235 % of control.

`CN(Cc1cnc2nc(N)nc(N)c2n1)c1ccc(C(=O)N[C@@H](CCC(=O)O)C(=O)O)cc1` was tested, and the T/C (dose: 1.25 mg/kg/injection, schedule: Q04DX003 (ip), vehicle: sodium bicarbonate) was 97 % of control, the T/C (dose: 2.5 mg/kg/injection, schedule: Q04DX003 (ip), vehicle: sodium bicarbonate) was 110 % of control and the T/C (dose: 5.0 mg/kg/injection, schedule: Q04DX003 (ip), vehicle: sodium bicarbonate) was 104 % of control and 111 % of control. For the same molecule, the T/C (dose: 10.0 mg/kg/injection, schedule: Q04DX003 (ip), vehicle: sodium bicarbonate) was 124 % of control, the T/C (dose: 20.0 mg/kg/injection, schedule: Q04DX003 (ip), vehicle: sodium bicarbonate) was 93 % of control and 124 % of control and the T/C (dose: 40.0 mg/kg/injection, schedule: Q04DX003 (ip), vehicle: sodium bicarbonate) was 156 % of control.

In the case of `CNc1nc(N(C)C)nc(N(C)C)n1`, the T/C (dose: 19.4 mg/kg/injection, schedule: Q01DX014 (ip), vehicle: saline) was 101 % of control, the T/C (dose: 19.4 mg/kg/injection, schedule: Q01DX014 (sc), vehicle: saline) was 100 % of control and 105 % of control and the T/C (dose: 32.4 mg/kg/injection, schedule: Q01DX014 (sc), vehicle: saline) was 152 % of control. For the same molecule, the T/C (dose: 54.0 mg/kg/injection, schedule: Q01DX014 (ip), vehicle: saline) was 150 % of control, the T/C (dose: 54.0 mg/kg/injection, schedule: Q01DX014 (sc), vehicle: saline) was 208 % of control and the T/C (dose: 90.0 mg/kg/injection, schedule: Q01DX014 (ip), vehicle: saline) was 181 % of control and 297 % of control. For the same molecule, the T/C (dose: 90.0 mg/kg/injection, schedule: Q01DX014 (sc), vehicle: saline) was 213 % of control and 243 % of control and the T/C (dose: 150.0 mg/kg/injection, schedule: Q01DX014 (ip), vehicle: saline) was 45 % of control.

With `[Cl][Pt+2][Cl].[NH-]C1CCC1.[NH2-]` the T/C (dose: 1.04 mg/kg/injection, schedule: Q04DX003 (ip), vehicle: water) was 216 % of control, the T/C (dose: 1.73 mg/kg/injection, schedule: Q04DX003 (ip), vehicle: water) was 265 % of control and the T/C (dose: 2.88 mg/kg/injection, schedule: Q04DX003 (ip), vehicle: water) was 301 % of control.

`N[C@H](C(=O)O)[C@@H]1CC(Cl)=NO1` was tested, and the T/C (dose: 1.0 mg/kg/injection, schedule: Q01DX009 (ip), vehicle: saline) was 121 % of control.

With `COc1cc([C@@H]2c3cc4c(cc3[C@@H](OC3OC5COC(C)OC5C(O)C3O)[C@H]3COC(=O)[C@H]23)OCO4)cc(OC)c1O` (stereo partly drawn) the T/C (dose: 5.0 mg/kg/injection, schedule: Q04DX003 (ip), vehicle: saline) was 201 % of control, the T/C (dose: 6.25 mg/kg/injection, schedule: Q04DX003 (ip), vehicle: saline with Tween-80) was 224 % of control and the T/C [1] was 337 % of control. The T/C (dose: 12.5 mg/kg/injection, schedule: Q04DX003 (ip), vehicle: saline with Tween-80) was 247 % of control, the T/C [2] was 355 % of control and the T/C (dose: 25.0 mg/kg/injection, schedule: Q04DX003 (ip), vehicle: saline with Tween-80) was 337 % of control. For the same molecule, the T/C [3] was 355 % of control, the T/C (dose: 50.0 mg/kg/injection, schedule: Q04DX003 (ip), vehicle: saline with Tween-80) was 337 % of control and the T/C [4] was 355 % of control. For the same molecule, the T/C (dose: 100.0 mg/kg/injection, schedule: Q04DX003 (ip), vehicle: saline with Tween-80) was 337 % of control.

`Nc1ncn(C2OC(CO)C(O)C2O)c(=O)n1` (stereo not drawn) was tested, and the T/C (dose: 2.0 mg/kg/injection, schedule: Q04DX003 (ip), vehicle: saline) was 120 % of control, the T/C (dose: 8.0 mg/kg/injection, schedule: Q04DX003 (ip), vehicle: saline) was 157 % of control and the T/C [1] was 185 % of control. For the same molecule, the T/C [2] was 219 % of control and the T/C (dose: 32.0 mg/kg/injection, schedule: Q04DX003 (ip), vehicle: saline) was 235 % of control.
